This assay concerns patients with inadequately controlled type 2 diabetes. On the procedure:
The data represent findings from a randomized, double-blind, placebo-controlled study of 546 individuals with type 2 diabetes whose HbA1c was greater than or equal to 7.0 percent and less than or equal to 10 percent at baseline. […] Patients in all arms also received metformin (greater than or equal to 1500 mg/d). […] Exploratory endpoints included body weight decrease of greater than or equal to 5 percent or greater than or equal to 10 percent as well as body weight percent change from baseline.

Structures are written as SMILES.

The source of these data is US9616028B2, “Bilayer tablet formulations” (AstraZeneca AB, priority 2009, dated 2017).

For the molecule `CCOc1ccc(Cc2cc([C@@H]3O[C@H](CO)[C@@H](O)[C@H](O)[C@H]3O)ccc2Cl)cc1` [dapagliflozin, (2S,3R,4R,5S,6R)-2-(4-chloro-3-(4-ethoxybenzyl)phenyl)-6-(hydroxymethyl)tetrahydro-2H-pyran-3,4,5-triol], where the note is “add-on to metformin, 24 weeks”, the “mean reductions in body weight compared to individuals taking placebo” value is recorded as “statistically greater”. The “adjusted mean change in FPG from baseline at Week 24” value (dapagliflozin 10 mg plus metformin) is -23.5 mg/dL. Moreover, the “patients who achieved weight losses greater than or equal to 5 percent compared to placebo” value (exploratory endpoint, add-on to metformin, 24 weeks) was “more patients”.
